The values that follow come from patent US8304236B2, “Modified biotin-binding protein” (Japan Tobacco Inc., priority 2008, dated 2012).

Where two headings read alike, the source gives them in different places.

In experiment [1] the test system is tamavidin 2 (TM2) variant TM2 D40N, SEQ ID NO: 20. Briefly: Biacore 3000 biotin-binding test (Example 2). The settings on record: Biotin-LC-BSA. More on the design: species or system Pleurotus cornucopiae. On the procedure:
As described above, a TM2 mutant in which aspartic acid at position 40 was replaced with asparagine (hereinafter referred to as “TM2 D40N”; its nucleotide sequence SEQ ID NO: 19, and the amino acid sequence in SEQ ID NO: 20) was constructed.
The solution was put into a dialysis tube (MWCO 6-8,000) and was dialyzed with 50 mM sodium carbonate (pH 6.7) at 4° C. overnight.
The amount for immobilization was adjusted to about 200 RU.
Accordingly, seven step measurement (3.125, 6.25, […], 25, 50, 100, and 200 nM) was conducted from the lowest concentration, without recycling steps. […] The measurement was performed at 25° C. The resulting sensorgrams were subjected to reaction kinetics analysis using analysis software BIAevaluation ver. 4.1 with a 1:1 binding model to calculate the binding rate constant (ka) and the dissociation rate constant (kd). The dissociation constant (KD) was determined from kd/ka. In the case where no recycling step is employed, the Rmax (maximum amount of binding analyte) decreases at each measurement. Accordingly, in the analysis, the Rmax was calculated by conducting local fitting for each concentration, and only the data of analyte concentrations that were approximated to the 1:1 binding model was employed.
In general terms: SPR reads the build-up and loss of mass on a sensor chip optically.

The target of experiment [2] is tamavidin 2 (TM2) variant TM2 R104EK141E, SEQ ID NO: 16 (Pleurotus cornucopiae, UniProt B9A0T7, K141E/R104E). The experiment can be described thus: Biacore 3000 biotin-binding test of low-pI TM2 (Example 1). The settings on record: SA-LC-Biotin (22.4 Å) immobilized; 25° C. On the procedure: (7) a TM2 mutant in which arginine at position 104 was replaced with glutamic acid, and lysine at position 141 was replaced with glutamic acid (hereinafter referred to as “TM2 R104EK141E”; its nucleotide sequence is listed in SEQ ID NO: 15, and the amino acid sequence in SEQ ID NO: 16).
(§1) HBS-EP (Biacore) was used as a running buffer, and each low-pI TM2 (40 μL) was injected at 25° C. and a flow rate of 20 μL/min for 2 minutes.
(§2) From the resulting sensorgrams, the binding rate constant (ka), the dissociation rate constant (kd), and the dissociation constant (KD) were calculated using an analysis software, BIAevaluation version 4.1.

The target of experiment [3] is T1, tamavidin 2 (TM2), wild type, SEQ ID NO: 2, Pleurotus cornucopiae (Pleurotus cornucopiae, UniProt B9A0T7).
T1 sequence (B9A0T7 1-141): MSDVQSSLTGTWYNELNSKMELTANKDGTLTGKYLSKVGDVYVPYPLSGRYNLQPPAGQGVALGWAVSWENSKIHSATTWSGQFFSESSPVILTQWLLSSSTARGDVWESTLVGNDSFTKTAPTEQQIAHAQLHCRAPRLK
Briefly: Biacore 3000 biotin binding test (Example 3). The settings on record: Biotin-BSA (22.4 Å) immobilized. On the procedure:
TM2 and HALU TM2 used as analytes were prepared by purification with 2-iminobiotin agarose in accordance with a common method and dialysis with 20MM KPi (pH 7) overnight. The analytes were each adjusted to about 50 μg/mL in 10 mM acetate buffer (pH 5, Biacore).
The immobilization of the ligand and measurement and analysis of specific interaction with the analytes were conducted as in paragraph 2-7-2).

Experiment [4] addresses tamavidin 2 (TM2) variant TM2 K73Q, SEQ ID NO: 6 (Pleurotus cornucopiae, UniProt B9A0T7, K73Q). Briefly: Biacore 3000 biotin-binding test of low-pI TM2 (Example 1). Conditions: SA-LC-Biotin (22.4 Å) immobilized; 25° C. On the procedure: (2) a TM2 mutant in which lysine at position 73 was replaced with glutamine (hereinafter referred to as “TM2 K73Q”; its nucleotide sequence is listed in SEQ ID NO: 5, and the amino acid sequence in SEQ ID NO: 6);
as §1, §2

Experiment [5] addresses tamavidin 2 (TM2) variant TM2 R104E, SEQ ID NO: 8 (Pleurotus cornucopiae, UniProt B9A0T7, R104E). The description is as above. The settings on record: BSA-LCLC-Biotin (30.5 Å) immobilized; 25° C. On the procedure: (3) a TM2 mutant in which arginine at position 104 was replaced with glutamic acid (hereinafter referred to as “TM2 R104E; its nucleotide sequence is listed in SEQ ID NO: 7, and the amino acid sequence in SEQ ID NO: 8);
as §1, §2

For experiment [6], the system named is streptavidin. The settings on record: similarly measured; WO2008/081938 A1; cited from earlier work.
In experiment [7] the target is tamavidin 2 (TM2) variant TM2 K26A, SEQ ID NO: 4 (Pleurotus cornucopiae, UniProt B9A0T7, K26A). Briefly: Biacore 3000 biotin-binding test of low-pI TM2 (Example 1). Conditions: SA-LC-Biotin (22.4 Å) immobilized; 25° C. On the procedure: (1) a TM2 mutant in which lysine at position 26 was replaced with alanine (hereinafter referred to as “TM2 K26A”; its nucleotide sequence is listed in SEQ ID NO: 3 and the amino acid sequence in SEQ ID NO: 4);
as §1, §2

The target of experiment [8] is T1, tamavidin 2 (TM2), wild type, SEQ ID NO: 2, Pleurotus cornucopiae. Conditions: WO2008/081938 A1; cited from earlier work.
Experiment [9] has as its target tamavidin 2 (TM2) variant TM2 K141E, SEQ ID NO: 10 (Pleurotus cornucopiae, UniProt B9A0T7, K141E). Briefly: Biacore 3000 biotin-binding test of low-pI TM2 (Example 1). Conditions: BSA-LCLC-Biotin (30.5 Å) immobilized; 25° C. On the procedure: (4) a TM2 mutant in which lysine at position 141 was replaced with glutamic acid (hereinafter referred to as “TM2 K141E; its nucleotide sequence is listed in SEQ ID NO: 9, and the amino acid sequence in SEQ ID NO: 10);
as §1, §2

For experiment [10], the target named is tamavidin 2 (TM2) variant TM2 K33TK37A, SEQ ID NO: 12 (Pleurotus cornucopiae, UniProt B9A0T7, K33T/K37A). Described as above. Conditions: BSA-LCLC-Biotin (30.5 Å) immobilized; 25° C. On the procedure:
(5) a TM2 mutant in which lysine at position 33 was replaced with threonine, and lysine at position 37 was replaced with alanine (hereinafter referred to as “TM2 K33TK37A”; its nucleotide sequence is listed in SEQ ID NO: 11, and the amino acid sequence in SEQ ID NO: 12);
as §1, §2

In experiment [11] the target is tamavidin 2 (TM2) variant TM2 K33TK37AR104E, SEQ ID NO: 14 (Pleurotus cornucopiae, UniProt B9A0T7, K33T/K37A/R104E). The experiment is described as above. The settings on record: BSA-LCLC-Biotin (30.5 Å) immobilized; 25° C. On the procedure: as §1, §2
For experiment [12], the target named is T1, tamavidin 2 (TM2), wild type, SEQ ID NO: 2, Pleurotus cornucopiae. The description is as above. Conditions: 25° C. On the procedure:
as §1, §2

Experiment [13] shares this target. Briefly: Biacore 3000 iminobiotin binding test (Example 2). The settings on record: Iminobiotin-BSA analyte, protein immobilized, pH 11, 25° C. On the procedure: These samples were diluted with 10 mM acetate buffer (pH 5, Biacore) into about 50 μg/mL.
Immobilization was performed at 25° C. and a flow rate of 10 μL/min using HBS-EP (Biacore) as a running buffer. The TM2 and the TM2 mutant (about 4000 to 8000 RU) were immobilized on CM5 sensor chips (Biacore) by amine coupling. The activating time was set to 10 minutes.
The specific interaction was measured using iminobiotin BSA as an analyte (a material flowing in a flow channel) at 25° C. and a flow rate of 20 μL/min and using a CAPS buffer (50 mM CAPS, 150 mM NaCl, 0.005% Tween 20, pH 11) as the running buffer. Iminobiotin BSA was produced as follows: A highly purified BSA (Sigma, 2 mg) and NHS-iminobiotin (Pierce, 1 mg) were dissolved in 50 mM sodium borate (pH 8.0, 1 mL), followed by incubation at 4° C. for 2 hours. […] Subsequently, the iminobiotin-BSA produced by the process described above was similarly measured with the same flow cell.
Each constant of samples showing interaction was calculated using analysis software BIAevaluation ver. […] The dissociation constant (KD) was determined from kd/ka. […] Accordingly, in the analysis, the Rmax was calculated by conducting local fitting for each concentration, and only the results at concentrations (mainly 18.75 to 75 nM) approximated to the 1:1 (Langmuir) binding model were employed.

tamavidin 2 (TM2) variant TM2 R104EK141E, SEQ ID NO: 16, sequence (B9A0T7 entry or part of it R104E/K141E): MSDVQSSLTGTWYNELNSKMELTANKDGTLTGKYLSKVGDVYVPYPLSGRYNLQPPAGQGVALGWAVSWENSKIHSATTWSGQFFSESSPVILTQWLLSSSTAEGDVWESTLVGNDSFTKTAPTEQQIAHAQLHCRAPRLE
tamavidin 2 (TM2) variant TM2 R104E, SEQ ID NO: 8, sequence (B9A0T7 entry or part of it R104E): as the sequence (B9A0T7 entry or part of it R104E/K141E) above, with E141K counted along it
tamavidin 2 (TM2) variant TM2 K73Q, SEQ ID NO: 6, sequence (B9A0T7 entry or part of it K73Q): as the sequence (B9A0T7 entry or part of it R104E/K141E) above, with K73Q, E104R, E141K counted along it
tamavidin 2 (TM2) variant TM2 K33TK37A, SEQ ID NO: 12, sequence (B9A0T7 entry or part of it K33T/K37A): as the sequence (B9A0T7 entry or part of it R104E/K141E) above, with K33T, K37A, E104R, E141K counted along it
tamavidin 2 (TM2) variant TM2 K141E, SEQ ID NO: 10, sequence (B9A0T7 entry or part of it K141E): as the sequence (B9A0T7 entry or part of it R104E/K141E) above, with E104R counted along it
tamavidin 2 (TM2) variant TM2 K33TK37AR104E, SEQ ID NO: 14, sequence (B9A0T7 entry or part of it K33T/K37A/R104E): as the sequence (B9A0T7 entry or part of it R104E/K141E) above, with K33T, K37A, E141K counted along it
tamavidin 2 (TM2) variant TM2 K26A, SEQ ID NO: 4, sequence (B9A0T7 entry or part of it K26A): as the sequence (B9A0T7 entry or part of it R104E/K141E) above, with K26A, E104R, E141K counted along it

For the molecule `O=C(O)CCCC[C@@H]1SC[C@@H]2NC(=O)N[C@@H]21` [biotin, D-[(+)-cis-hexahydro-2-oxo-1H-thieno-(3,4)-imidazole-4-valerate]], in [1], the “change of binding rate constant (ka) compared to TM2” value was “increased”. For the same molecule, in experiment [1], the “change of dissociation rate constant (kd) compared to TM2” value was “decreased”. Further, the “binding rate constant (ka)” value in experiment [2] was 1.2 × 10^6; in experiment [3], 9.9 × 10^5; in [4] it was 5.9 × 10^5; in [5], 5.8 × 10^5; in [6] it was 2.28e+06 M⁻¹ s⁻¹; in experiment [7], 5.0 × 10^5. Moreover, the “binding rate constant (ka)” value is 919000 M⁻¹ s⁻¹ in experiment [8]; 5.8 × 10^5 in [9]; 2.5 × 10^5 in [10]; 6.3 × 10^5 in [11]; 9.2 × 10^5 in experiment [12] (BSA-LCLC-Biotin (30.5 Å) immobilized); 9.9 × 10^5 in experiment [12] (SA-LC-Biotin (22.4 Å) immobilized). Further, the “dissociation rate constant (kd)” value is 2.52e-06 s⁻¹ in [6] and 6.83e-06 s⁻¹ in experiment [8].
In the case of `N=C1N[C@H]2[C@H](CS[C@H]2CCCCC(=O)O)N1` [iminobiotin], the kon in [13] (read-out: binding rate constant (ka)) came to 130000 ± 5e+09 M⁻¹ s⁻¹. In experiment [13] (read-out: dissociation rate constant (kd)), the koff turned out to be 0.0013 ± 6e-07 s⁻¹.
